Experiments:
[1] = tested on: β-catenin/Tcf-4; assay: cells; assay type: cell-based; details: 24 hours of incubation with compound, ratio Firefly/Renilla luciferase
Summary of the method: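 SW480-derived lines with integrated reporters (Tcf-4-driven firefly luciferase; SV40 firefly as specificity control; SV40 Renilla for cell number/toxicity), treated 24 hours with titrated compounds, final 0.316% DMSO. Dual-luciferase read-out; firefly/Renilla ratio as % of control, duplicate plates, IC50 (nM) from curve fit.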

[2] = tested on: SV40-Luc; assay: SV40-Luc control luciferase reporter assay, SV 5A8 cell line (SV40-Luc and SV40-R-Luc), control for non-specific inhibitors; assay type: cell-based, human; details: SV 5A8 cells derived from SW480, 24 hours of incubation with compound, ratio Firefly/Renilla luciferase
Summary of the method: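 SW480-derived lines with integrated reporters: SV 5A8 (SV40 firefly plus SV40 Renilla), Tcf 33.13 and Tcf 22C11 (Tcf-4 firefly plus SV40 Renilla). Cells seeded 1×10^4/well, compounds added 20-24 h later at titrated concentrations (final DMSO 0.316%) for 24 h. Firefly/Renilla ratio, as % of control, gave IC50 (nM).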

[3] = Homo sapiens, SW480, 24 h, Tcf 33.13 cells derived from SW480
[4] = Homo sapiens, Tcf22C11, 24 h, Tcf 22C11 cells derived from SW480

| Structure (SMILES) | IC50 [1, 3] [nM] | IC50 [1, 4] [nM] | IC50 ([2]; Homo sapiens, SV5A8, 24 h) [nM] | IC50 ([1]; Tcf 22C11 cells derived from SW480) [nM] | IC50 ([1]; Tcf 33.13 cells derived from SW480) [nM] | IC50 [2] [nM] |
| --- | --- | --- | --- | --- | --- | --- |
| O=C(Nc1ccc(CNc2nc(NC3CCC3)nc3ccc(C(F)(F)F)cc23)cc1)c1ccc(Cl)cc1 [Example 166, 4-chloro-N-[4-({[2-(cyclobutylamino)-6-(trifluoromethyl)quinazolin-4-yl]amino}methyl)phenyl]benzamide] | > 9510 | > 9510 | > 9510 | – | – | – |
| CNc1nc(NCc2ccc(NC(=O)c3ccc(Cl)cc3)cc2)c2cc(-c3ccco3)cc(C)c2n1 [Example 67, 4-chloro-N-[4-({[6-(2-furyl)-8-methyl-2-(methylamino)quinazolin-4-yl]amino}methyl)phenyl]benzamide] | 1450 | 1210 | > 10000 | – | – | – |
| Cc1ccc2c(NCc3ccc(NC(=O)C4CCN(Cc5ccc(Cl)cc5)CC4)cc3)nc(N(C)C)nc2c1 [Example 253, 1-(4-chlorobenzyl)-N-[4-({[2-(dimethylamino)-7-methylquinazolin-4-yl]amino}methyl)phenyl]piperidine-4-carboxamide] | 255 | 390 | > 4060 | – | – | – |
| CC(C)c1ccc2c(NCc3ccc(NC(=O)c4ccc(Cl)nc4)cc3)nc(N(C)C)nc2c1 [Example 62, 6-chloro-N-[4-({[2-(dimethylamino)-7-isopropylquinazolin-4-yl]amino}methyl)phenyl]nicotinamide] | 808 | 1110 | > 9780 | – | – | – |
| CCN1CCN(c2nc(NCc3ccc(NC(=O)c4ccc(F)cc4)cc3)c3ccc(C)cc3n2)CC1 [Example 227, N-[4-({[2-(4-ethylpiperazin-1-yl)-7-methylquinazolin-4-yl]amino}methyl)phenyl]-4-fluorobenzamide] | 736 | 1150 | > 10000 | – | – | – |
| Cc1ccc2c(NCc3ccc(NC(=O)c4ccc(F)cc4)cc3)nc(N(C)CCc3ccccn3)nc2c1 [Example 222, 4-fluoro-N-{4-[({7-methyl-2-[methyl(2-pyridin-2-ylethyl)amino]quinazolin-4-yl}amino)methyl]phenyl}benzamide] | 650 | 918 | > 7880 | – | – | – |
| O=C(Nc1ccc(CNc2nc(NC3CCCCC3)nc3ccccc23)cc1)c1ccc(F)cc1 [Example 125, N-[4-({[2-(cyclohexylamino)quinazolin-4-yl]amino}methyl)phenyl]-4-fluorobenzamide] | 364 | 1580 | > 1330 | – | – | – |
| CN(C)c1nc(NCc2ccc(NC(=O)c3ccc(F)cc3)cc2)c2ccccc2n1 [Example 113, N-[4-({[2-(dimethylamino)quinazolin-4-yl]amino}methyl)phenyl]-4-fluorobenzamide] | 766 | 1490 | > 3010 | – | – | – |
| CNc1nc(NCc2ccc(NC(=O)c3ccc(F)cc3Cl)cc2)c2cc(C)ccc2n1 [Example 28, 2-chloro-4-fluoro-N-[4-({[6-methyl-2-(methylamino)quinazolin-4-yl]amino}methyl)phenyl]benzamide] | 904 | > 1390 | > 1390 | – | – | – |
| CNc1nc(NCc2ccc(NC(=O)c3ccc(Cl)nc3)cc2)c2cc(C)cc(C)c2n1 [Example 23, 6-chloro-N-[4-({[6,8-dimethyl-2-(methylamino)quinazolin-4-yl]amino}methyl)phenyl]nicotinamide] | 1720 | 1880 | > 5590 | – | – | – |
| CN(C)c1nc(NCc2ccc(C(=O)Nc3ccc(F)cc3)cc2)c2cc(-c3ccc(/C=C/c4ccccc4)cc3)ccc2n1 [Example 173] | – | – | – | > 4510 | 4480 | > 18000 |
| CC(C)c1ccc2c(NCc3ccc(NC(=O)c4ccc(F)cc4)cc3)nc(N(C)C)nc2c1 [Example 61, N-[4-({[2-(dimethylamino)-7-isopropylquinazolin-4-yl]amino}methyl)phenyl]-4-fluorobenzamide] | 327 | 532 | > 5060 | – | – | – |
| CN(C)c1nc(NCc2ccc(NC(=O)c3ccc(F)cc3)cc2)c2cc(F)ccc2n1 [Example 60, N-[4-({[2-(dimethylamino)-6-fluoroquinazolin-4-yl]amino}methyl)phenyl]-4-fluorobenzamide] | 1950 | 5390 | > 11500 | – | – | – |
